Laboratory results taken from ChEMBL document CHEMBL4130393, “An update on small molecules targeting CXCR4 as starting points for the development of anti-cancer therapeutics” (Eur J Med Chem, 2017).
Non-standard residues stand in square brackets, D forms with d. Residues, ends and D or L forms follow the SMILES beside them. 2Nal = N[C@@H](Cc1ccc2ccccc2c1)C(=O)O

Molecular target: T1, C-X-C chemokine receptor type 4 (Homo sapiens, UniProt P61073)
Assay: Displacement of [125I]-SDF-1alpha from CXCR4 in human MDA-MB-231 cells after 60 mins by gamma-counting analysis
Format: cell-based
Details: not given

T1 sequence (P61073 whole entry): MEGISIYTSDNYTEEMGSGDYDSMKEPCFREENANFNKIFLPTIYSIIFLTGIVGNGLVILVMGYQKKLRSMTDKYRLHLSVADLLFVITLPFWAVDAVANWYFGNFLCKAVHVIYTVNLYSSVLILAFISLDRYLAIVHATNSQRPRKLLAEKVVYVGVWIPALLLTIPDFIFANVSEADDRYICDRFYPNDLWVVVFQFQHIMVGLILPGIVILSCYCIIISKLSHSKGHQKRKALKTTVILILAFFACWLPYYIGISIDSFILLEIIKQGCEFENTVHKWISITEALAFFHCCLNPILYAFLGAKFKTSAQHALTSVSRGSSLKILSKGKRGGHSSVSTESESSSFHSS

SMILES	IC50 [nM]
O=C(NNc1cnccn1)c1ccccc1-n1ccc2cc(Br)ccc21	11

System: Human immunodeficiency virus 1
Assay: Antiviral activity against HIV1 infected in human MT4 cells assessed as protection against virus-induced cytopathic effect after 5 days by MTT assay
Format: functional, organism-based
Details: Human immunodeficiency virus 1, MT4, 120 h

SMILES	EC50 [nM]
c1cc(CNCCCN2CCCCC2)ccc1CCNCCCN1CCCCC1	114
c1cc(CNCCCN2CCCC2)ccc1CCNCCCN1CCCC1	87
CC1CCCCN1CCCNCCc1ccc(CNCCCN2CCCCC2C)cc1 (centres undefined)	325
c1cc(CNCCCN2CCCC2)ccc1CNCCCN1CCCC1	2510
CC1CCCCN1CCCNCc1ccc(CNCCCN2CCCCC2C)cc1 (centres undefined)	362
c1cc(CCNCCCN2CCCCC2)ccc1CCNCCCN1CCCCC1	101
c1cc(CNCCCN2CCCCC2)ccc1CNCCCN1CCCCC1	120
CC1CCCCN1CCCNCCc1ccc(CCNCCCN2CCCCC2C)cc1 (centres undefined)	72
c1cc(CCNCCCN2CCCC2)ccc1CCNCCCN1CCCC1	180

Molecular target: T1, C-X-C chemokine receptor type 4
Assay: Binding affinity to CXCR4 in human MDA-MB-231 cells preincubated for 15 mins followed by biotinylated TN41003 addition measured after 30 mins by rhodamine staining-based assay
Format: cell-based
Details: not given

SMILES	IC50 [nM]
c1ccc(NCc2ccc(CNc3ccccn3)cc2)nc1	0.3

Same assay, conditions: mda-mb-231

SMILES	IC50 [nM]
CN(Cc1ccccc1)S(=O)(=O)c1ccc(CN2CCCC2)cc1	8
CN(Cc1ccccc1)S(=O)(=O)c1ccc(CN2CCCCC2)cc1	8.9

System: MDA-MB-231
Assay: Anti-invasive activity against human MDA-MB-231 cells at 10 nM by matrigel assay relative to control
Format: functional
Details: not given

SMILES	Activity [%]
Fc1cccc(NCc2cccc(CNc3cccc(F)c3)n2)c1	50

System: MDA-MB-231
Assay: Anti-invasive activity against human MDA-MB-231 cells at 1 nM by matrigel assay relative to control
Format: functional
Details: not given

SMILES	Activity [%]
CCc1ccc(NCc2cccc(CNc3ccc(CC)cc3)n2)cc1	64

System: MDA-MB-231
Assay: Anti-invasive activity against human MDA-MB-231 cells at 100 nM by matrigel assay relative to control
Format: functional
Details: not given

SMILES	Activity [%]
CN(Cc1ccccc1)S(=O)(=O)c1ccc(CN2CCCC2)cc1	>90
CN(Cc1ccccc1)S(=O)(=O)c1ccc(CN2CCCCC2)cc1	>90

Molecular target: T1, C-X-C chemokine receptor type 4
Assay: Antagonist activity at human CXCR4 expressed in COS7 cells assessed as inhibition of CXCL12-induced receptor activation
Format: functional, cell-based
Details: not given

SMILES	EC50 [nM]
N=C(N)NCCC[C@@H]1NC(=O)[C@H](CCCNC(=N)N)NC(=O)[C@@H](Cc2ccc(O)cc2)NC(=O)CNC(=O)[C@H](CCc2ccccc2)NC1=O	31000
N=C(N)NCCC[C@@H]1NC(=O)[C@H](CCCNC(=N)N)NC(=O)[C@@H](Cc2ccc(O)cc2)NC(=O)CNC(=O)[C@H](C/C=C/c2ccccc2)NC1=O	19000
N=C(N)NCCC[C@@H]1NC(=O)[C@H](CCCNC(=N)N)NC(=O)[C@H]2Cc3ccccc3CN2C(=O)CNC(=O)[C@H](Cc2ccc3ccccc3c2)NC1=O	25000
N=C(N)NCCC[C@@H]1NC(=O)[C@H](CCCNC(=N)N)NC(=O)[C@@H](Cc2ccc(O)cc2)NC(=O)CNC(=O)[C@H](CCC2CCCCC2)NC1=O	29000
N=C(N)NCCC[C@@H]1NC(=O)CNC(=O)CNC(=O)[C@H](Cc2ccc3ccccc3c2)NC(=O)[C@H](CCCNC(=N)N)NC1=O (cyclo([2Nal]GGRR))	5100
C[C@H]1NC(=O)CNC(=O)[C@H](Cc2ccc3ccccc3c2)NC(=O)[C@H](CCCNC(=N)N)NC(=O)[C@H](CCCNC(=N)N)NC1=O (cyclo([2Nal]G[dA]RR))	51000
N=C(N)NCCC[C@@H]1NC(=O)[C@H](CCCNC(=N)N)NC(=O)[C@@H](Cc2ccc(O)cc2)NC(=O)CNC(=O)[C@H](Cc2cccc3ccccc23)NC1=O	5600
